Laboratory results taken from US20090042773A1, “P13 kinase gamma inhibitors for the treatment of anaemia” (priority 2004, published 2009).

What was measured:
[1] = molecular target: Human recombinant GST-PI3Kγ (Homo sapiens, UniProt P48736)
[2] = tested on: Mobilized CD34 positive stem cells; assay: EPO induced erythrocyte formation (stem cell culture, colony assay, flow cytometry); type: cell-based
Source text: b) EPO Induced Erythrocyte Formation:
Investigation of the effect of PI3K inhibitors on the differentiation of red cell population, but also on the expansion of undifferentiated stem cells. Two different culture systems. A and B, were explored.
Culture System A (Containing No IL-3):
Differentiation of bone-marrow derived stem cells into the red cell line only. Semi-optimal systems in respect of the expansion of colony forming units, because of the lack of IL3 and other early acting growth factors.
The culture conditions are: IMDM-culture medium, 30% pre-selected fetal calf serum, 1% BSA, Glutamine 40 ug/ml iron saturated transferin, 10−6 Mol Mercaptoethanol, 10 ng/ml SCF, 100 U/ml IL6, 7 U Epo.
Culture System B (Containing IL-3):
Colony forming unit assay. […]
Colony forming units and the expression of Glycophorin A (marker) on the cell surface were used as markers for stem cell erythropoesis. Additionally, the presence of the cell surface antigen CD34 was also monitored to assess the differentiation status of the in vitro expanded cell lineage.
Relative expansion rate of GlyA-positive cells: At day 0, the stage of differentiation only few, if any cells, are GlyA positive. […] The expansion rate is calculated as the absolute number of GlyA-positive cells at the time point of interest divided by the absolute number of GlyA-positive cells in the starting material.

[3] = molecular target: Human recombinant GST-PI3Kα (Homo sapiens, UniProt P42336)
[4] = molecular target: T1, Human recombinant GST-PI3Kδ (Homo sapiens, UniProt O00329)
T1 sequence (O00329 1-1044): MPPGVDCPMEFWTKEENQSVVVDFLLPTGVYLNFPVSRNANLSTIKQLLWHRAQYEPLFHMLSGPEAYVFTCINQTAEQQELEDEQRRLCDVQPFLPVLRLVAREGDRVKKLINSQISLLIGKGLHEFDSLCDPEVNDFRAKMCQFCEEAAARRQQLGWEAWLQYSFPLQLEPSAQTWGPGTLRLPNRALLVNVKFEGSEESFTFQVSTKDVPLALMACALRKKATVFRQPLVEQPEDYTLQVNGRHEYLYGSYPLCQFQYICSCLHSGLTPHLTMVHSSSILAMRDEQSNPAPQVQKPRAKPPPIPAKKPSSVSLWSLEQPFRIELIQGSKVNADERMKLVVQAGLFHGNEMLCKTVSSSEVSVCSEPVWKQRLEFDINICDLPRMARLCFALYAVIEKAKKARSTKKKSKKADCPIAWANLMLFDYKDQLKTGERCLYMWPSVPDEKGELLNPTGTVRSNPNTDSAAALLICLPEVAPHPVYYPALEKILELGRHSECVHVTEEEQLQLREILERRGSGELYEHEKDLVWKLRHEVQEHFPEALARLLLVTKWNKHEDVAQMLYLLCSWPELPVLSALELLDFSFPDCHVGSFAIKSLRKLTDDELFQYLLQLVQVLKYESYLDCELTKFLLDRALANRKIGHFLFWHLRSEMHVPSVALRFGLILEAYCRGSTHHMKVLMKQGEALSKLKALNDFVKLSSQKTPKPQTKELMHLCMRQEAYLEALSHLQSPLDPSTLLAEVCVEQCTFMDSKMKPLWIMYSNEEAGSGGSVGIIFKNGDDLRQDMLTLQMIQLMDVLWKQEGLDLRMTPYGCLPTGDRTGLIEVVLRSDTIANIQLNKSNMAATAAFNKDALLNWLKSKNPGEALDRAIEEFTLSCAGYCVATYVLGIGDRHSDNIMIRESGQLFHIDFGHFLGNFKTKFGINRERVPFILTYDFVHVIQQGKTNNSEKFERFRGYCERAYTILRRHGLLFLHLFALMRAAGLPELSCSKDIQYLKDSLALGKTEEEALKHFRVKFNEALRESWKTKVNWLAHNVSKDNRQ

[5] = tested on: CD34+ progenitor cells; settings: Myklebust et al., Experimental Hematology 30 (2002), 990; cited from earlier work
[6] = tested on: K562 erythroleukemia cells; settings: Neri et al., Cellular Signalling 14 (2002) 21; cited from earlier work

Sequence of Human recombinant GST-PI3Kγ (P48736 whole entry): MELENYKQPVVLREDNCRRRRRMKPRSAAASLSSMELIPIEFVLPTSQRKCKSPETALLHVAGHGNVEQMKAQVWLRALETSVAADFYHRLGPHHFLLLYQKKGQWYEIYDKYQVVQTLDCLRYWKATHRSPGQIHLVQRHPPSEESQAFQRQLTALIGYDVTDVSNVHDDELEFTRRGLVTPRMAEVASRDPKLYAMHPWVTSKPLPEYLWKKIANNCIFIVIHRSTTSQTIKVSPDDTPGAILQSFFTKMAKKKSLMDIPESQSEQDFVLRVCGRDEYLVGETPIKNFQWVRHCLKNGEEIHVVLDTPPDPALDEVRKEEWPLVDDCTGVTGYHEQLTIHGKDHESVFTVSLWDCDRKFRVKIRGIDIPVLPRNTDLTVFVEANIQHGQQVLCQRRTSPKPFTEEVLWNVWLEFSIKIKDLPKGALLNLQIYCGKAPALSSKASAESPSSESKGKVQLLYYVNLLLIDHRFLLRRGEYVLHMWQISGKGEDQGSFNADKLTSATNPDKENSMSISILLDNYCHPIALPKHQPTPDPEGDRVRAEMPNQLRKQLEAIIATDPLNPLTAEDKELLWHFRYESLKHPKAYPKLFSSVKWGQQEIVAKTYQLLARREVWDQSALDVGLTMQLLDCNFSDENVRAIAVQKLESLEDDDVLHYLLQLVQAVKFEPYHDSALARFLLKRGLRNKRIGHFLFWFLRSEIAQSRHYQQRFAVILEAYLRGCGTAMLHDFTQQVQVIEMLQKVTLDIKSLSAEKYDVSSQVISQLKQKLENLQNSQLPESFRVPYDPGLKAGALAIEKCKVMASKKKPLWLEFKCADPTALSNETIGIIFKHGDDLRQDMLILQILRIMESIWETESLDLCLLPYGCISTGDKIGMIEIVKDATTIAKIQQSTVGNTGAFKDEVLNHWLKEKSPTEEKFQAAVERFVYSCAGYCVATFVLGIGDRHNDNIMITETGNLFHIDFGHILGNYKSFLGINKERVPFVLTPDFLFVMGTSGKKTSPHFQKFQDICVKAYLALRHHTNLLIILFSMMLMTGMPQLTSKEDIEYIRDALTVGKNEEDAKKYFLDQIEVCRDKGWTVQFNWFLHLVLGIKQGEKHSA
Sequence of Human recombinant GST-PI3Kα (P42336 whole entry): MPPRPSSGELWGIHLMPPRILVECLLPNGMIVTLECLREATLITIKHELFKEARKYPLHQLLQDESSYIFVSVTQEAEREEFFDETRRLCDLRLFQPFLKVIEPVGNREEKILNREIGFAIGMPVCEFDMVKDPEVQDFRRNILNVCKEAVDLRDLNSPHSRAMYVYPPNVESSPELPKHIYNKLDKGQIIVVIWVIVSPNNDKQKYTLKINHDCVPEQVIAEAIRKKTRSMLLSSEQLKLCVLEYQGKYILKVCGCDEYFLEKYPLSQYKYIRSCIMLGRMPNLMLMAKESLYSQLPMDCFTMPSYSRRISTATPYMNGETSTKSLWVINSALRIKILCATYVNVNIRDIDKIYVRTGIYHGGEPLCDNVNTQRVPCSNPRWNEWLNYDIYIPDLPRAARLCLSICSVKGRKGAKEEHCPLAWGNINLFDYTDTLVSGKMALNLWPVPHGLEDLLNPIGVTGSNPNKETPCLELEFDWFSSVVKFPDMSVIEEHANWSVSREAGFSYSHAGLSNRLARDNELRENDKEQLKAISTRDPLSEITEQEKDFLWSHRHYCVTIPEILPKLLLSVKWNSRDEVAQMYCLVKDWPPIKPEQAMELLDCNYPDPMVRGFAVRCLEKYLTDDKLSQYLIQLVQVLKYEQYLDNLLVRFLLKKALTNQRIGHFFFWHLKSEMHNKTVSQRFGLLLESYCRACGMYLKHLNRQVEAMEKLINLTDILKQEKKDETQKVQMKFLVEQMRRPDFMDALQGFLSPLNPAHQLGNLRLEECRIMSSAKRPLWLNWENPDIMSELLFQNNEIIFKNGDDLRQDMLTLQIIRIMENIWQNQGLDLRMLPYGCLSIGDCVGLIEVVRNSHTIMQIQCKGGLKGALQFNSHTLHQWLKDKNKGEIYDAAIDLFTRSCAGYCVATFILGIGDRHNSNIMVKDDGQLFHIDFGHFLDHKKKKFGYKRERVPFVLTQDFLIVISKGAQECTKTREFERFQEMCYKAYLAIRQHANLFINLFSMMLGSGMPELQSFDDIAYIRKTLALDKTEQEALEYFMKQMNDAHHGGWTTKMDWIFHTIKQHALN

Row | Compound | IC50 [1] | IC50 [3] | IC50 [4] | other results
1 | O=C1NC(=O)C(=Cc2ccc3c(c2)OCO3)S1 [Example 1, 5-(1,3-benzodioxol-5-ylmethylene)-1,3-thiazolidine-2,4-dione] | 0.07 µM | 0.25 µM | 1.7 µM | increase of the expansion of nucleated cells over the control ([2]; in 13 days, compound added at day 1): 4 fold; cell proliferation ([2]; same culture, 13 days): not enhanced
2 | O=C1NC(=S)SC1=Cc1ccc2c(c1)OCO2 [Example 2, 5-(1,3-benzodioxol-5-ylmethylene)-2-thioxo-1,3-thiazolidin-4-one] | 0.115 µM | 0.45 µM |  | 
3 | O=C1NC(=O)C(=Cc2ccc3c(c2)OCCO3)S1 [Example 3, 5-(2,3-dihydro-1,4-benzodioxin-6-ylmethylene)-1,3-thiazolidine-2,4-dione] | 0.05 µM | 0.31 µM |  | 
4 | O=C1NC(=O)C(=Cc2ccc3c(c2)C(=O)c2ccccc2C3=O)S1 [Example 4, 5-[(9,10-dioxo-9,10-dihydroanthracen-2-yl)methylene]-1,3-thiazolidine-2,4-dione] | 0.316 µM | 1.37 µM | 4.87 µM | 
5 | CN1C(=O)COc2ccc(C=C3SC(=O)NC3=O)cc21 [Example 6, 5-[(4-methyl-3-oxo-3,4-dihydro-2H-1,4-benzoxazin-6-yl)methylene]-1,3-thiazolidine-2,4-dione] | 0.03 µM | 0.17 µM |  | 
6 | N=C1NC(=O)C(=Cc2ccc3c(c2)OCO3)S1 [Example 7, 5-(1,3-benzodioxol-5-ylmethylene)-2-imino-1,3-thiazolidin-4-one] | 0.71 µM |  |  | 
7 | Cc1coc2ccc(C=C3SC(=O)NC3=O)cc12 [Example 8, 5-(3-Methyl-benzofuran-5-ylmethylene)-thiazolidine-2,4-dione] | 0.03 µM | 0.135 µM | 1.97 µM | 
8 | O=C(O)C=Cc1coc2ccc(C=C3SC(=O)NC3=O)cc12 [Example 9, 3-[5-(2,4-Dioxo-thiazolidin-5-ylidenemethyl)benzofuran-3-yl]-acrylic acid] | 0.008 µM | 0.032 µM | 2.48 µM | 
9 | O=C1NC(=O)C(=Cc2ccc3c(c2)NCCO3)S1 [Example 10, 5-(3,4-Dihydro-2H-benzo[1,4]oxazin-6-ylmethylene)-thiazolidine-2,4-dione] | 0.59 µM | 2.1 µM |  | 
10 | Nc1noc2ccc(C=C3SC(=O)NC3=O)cc12 [Example 11, 5-(3-Amino-benzo[d]isoxazol-5-ylmethylene)thiazolidine-2,4-dione] | 0.095 µM | 0.46 µM | 10 µM | 
11 | O=C1NC(=O)C(=Cc2ccc3nonc3c2)S1 [Example 12, 5-Benzo[1,2,5]oxadiazol-5-ylmethylene-thiazolidine-2,4-ione] | 0.035 µM | 0.37 µM | 2.73 µM | 
12 | O=C1NC(=O)C(=Cc2ccc3cc(F)oc3c2)S1 [Example 13, 5-(2-Fluoro-benzofuran-6-ylmethylene)-thiazolidine-2,4-dione] | 0.29 µM | 1.2 µM |  | 
13 | N#CN=C1NC(=O)C(=Cc2ccc3c(c2)OCO3)S1 [Example 14, 5-Benzo[1,3]dioxol-5-ylmethylene-4-oxo-thiazolidin-2-ylidene-cyanamide] | 0.021 µM | 0.231 µM | 1.17 µM | 
14 | O=c1cc(N2CCOCC2)oc2c(-c3ccccc3)cccc12 [LY294002] |  |  |  | effect on EPO induced erythropoiesis from CD34+ progenitor cells [5]: inhibit EPO induced erythropoiesis
15 | COC[C@H]1OC(=O)c2coc3c2[C@@]1(C)C1=C(C3=O)[C@@H]2CCC(=O)[C@@]2(C)C[C@H]1OC(C)=O [Wortmannin, wortmannin] |  |  |  | effect on EPO induced erythroid differentiation of K562 cells [6]: prevents K562 erythroleukemia cells from EPO induced erythroid differentiation
